Laboratory results reported in the supplement of paper PMC10307832.

Columns and labels:
Assay in all cases: relative viability (nuclei count vs DMSO), 5 days (fraction); higher = more cells survive
EPLC-272H = system: EPLC-272H
Method in brief: (§1)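 Each reported value is a median over duplicate plates. It expresses relative viability: treated-well nuclei count divided by vehicle-well nuclei count. Lung cancer cell lines in 1536-well plates were dosed by pin tool a day after seeding, alone with one drug or with a fixed anchor-drug dose plus five library-drug doses (not always all listed) in √10 steps, and nuclei were counted after 5 days.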

H3255 = system: H3255
Method in brief: as §1

HARA = system: HARA
Method in brief: as §1

LC-2-ad = system: LC-2-ad
Method in brief: as §1

LOU-NH91 = system: LOU-NH91
Method in brief: as §1

NCI-H1650 = system: NCI-H1650
Method in brief: as §1

NCI-H1651 = system: NCI-H1651
Method in brief: as §1

NCI-H1975 = system: NCI-H1975
Method in brief: as §1

NCI-H2009 = system: NCI-H2009
Method in brief: as §1

NCI-H2023 = system: NCI-H2023
Method in brief: as §1

NCI-H2085 = system: NCI-H2085
Method in brief: as §1

NCI-H2087 = system: NCI-H2087
Method in brief: as §1

NCI-H2170 = system: NCI-H2170
Method in brief: as §1

NCI-H2228 = system: NCI-H2228
Method in brief: as §1

NCI-H23 = system: NCI-H23
Method in brief: as §1

NCI-H441 = system: NCI-H441
Method in brief: as §1

NCI-H650 = system: NCI-H650
Method in brief: as §1

NCI-H727 = system: NCI-H727
Method in brief: as §1

NCI-H838 = system: NCI-H838
Method in brief: as §1

PC-3 [JPC-3] = system: PC-3 [JPC-3]
Method in brief: as §1

SW 1573 = system: SW 1573
Method in brief: as §1

SW 900 = system: SW 900
Method in brief: as §1

UMC-11 = system: UMC-11
Method in brief: as §1

For `Cc1cn(-c2cc(NC(=O)c3ccc(C)c(Nc4nccc(-c5cccnc5)n4)c3)cc(C(F)(F)F)c2)cn1` [Nilotinib] + COc1cc2c(Oc3ccc(NC(=O)C4(C(=O)Nc5ccc(F)cc5)CC4)cc3F)ccnc2cc1OCCCN1CCOCC1 [Foretinib] (partner 0.25 µM), the relative viability (EPLC-272H; first compound 0.001 µM) was 0.48, the relative viability (EPLC-272H; first compound 0.003162 µM) was 0.658 and the relative viability (EPLC-272H; first compound 0.01 µM) was 0.688. For the same molecule, the relative viability (EPLC-272H; first compound 0.03162 µM) was 0.435, the relative viability (EPLC-272H; first compound 0.1 µM) was 0.195 and the relative viability (H3255; first compound 0.001 µM) was 0.943. For the same molecule, the relative viability (H3255; first compound 0.003162 µM) was 1.06, the relative viability (H3255; first compound 0.03162 µM) was 0.845 and the relative viability (H3255; first compound 0.1 µM) was 0.296. For the same molecule, the relative viability (HARA; first compound 0.001 µM) was 0.922, the relative viability (HARA; first compound 0.003162 µM) was 0.646 and the relative viability (HARA; first compound 0.01 µM) was 0.817. The relative viability (HARA; first compound 0.03162 µM) was 0.811, the relative viability (HARA; first compound 0.1 µM) was 0.943 and the relative viability (LC-2-ad; first compound 0.001 µM) was 0.912. For the same molecule, the relative viability (LC-2-ad; first compound 0.003162 µM) was 1.08, the relative viability (LC-2-ad; first compound 0.01 µM) was 0.963 and the relative viability (LC-2-ad; first compound 0.03162 µM) was 0.827. For the same molecule, the relative viability (LC-2-ad; first compound 0.1 µM) was 0.804, the relative viability (LOU-NH91; first compound 0.001 µM) was 0.995 and the relative viability (LOU-NH91; first compound 0.003162 µM) was 0.961. For the same molecule, the relative viability (LOU-NH91; first compound 0.01 µM) was 0.985, the relative viability (LOU-NH91; first compound 0.03162 µM) was 0.935 and the relative viability (LOU-NH91; first compound 0.1 µM) was 0.92. The relative viability (NCI-H1650; first compound 0.001 µM) was 1.09, the relative viability (NCI-H1650; first compound 0.003162 µM) was 1.2 and the relative viability (NCI-H1650; first compound 0.01 µM) was 1.3. It also gave a relative viability (NCI-H1650; first compound 0.03162 µM) of 1.09, a relative viability (NCI-H1650; first compound 0.1 µM) of 1.3 and a relative viability (NCI-H1651; first compound 0.001 µM) of 0.82. The relative viability (NCI-H1651; first compound 0.003162 µM) was 0.922, the relative viability (NCI-H1651; first compound 0.01 µM) was 1.19 and the relative viability (NCI-H1651; first compound 0.03162 µM) was 0.761. For the same molecule, the relative viability (NCI-H1651; first compound 0.1 µM) was 0.79, the relative viability (NCI-H1975; first compound 0.001 µM) was 0.956 and the relative viability (NCI-H1975; first compound 0.003162 µM) was 1.12. The relative viability (NCI-H1975; first compound 0.01 µM) was 1.02, the relative viability (NCI-H1975; first compound 0.03162 µM) was 0.74 and the relative viability (NCI-H1975; first compound 0.1 µM) was 0.957. The relative viability (NCI-H2009; first compound 0.001 µM) was 1.12, the relative viability (NCI-H2009; first compound 0.003162 µM) was 1.41 and the relative viability (NCI-H2009; first compound 0.01 µM) was 1.32. The relative viability (NCI-H2009; first compound 0.03162 µM) was 1.16, the relative viability (NCI-H2009; first compound 0.1 µM) was 1.1 and the relative viability (NCI-H2023; first compound 0.001 µM) was 0.839. For the same molecule, the relative viability (NCI-H2023; first compound 0.01 µM) was 1.01, the relative viability (NCI-H2023; first compound 0.03162 µM) was 0.88 and the relative viability (NCI-H2023; first compound 0.1 µM) was 0.875. For the same molecule, the relative viability (NCI-H2085; first compound 0.001 µM) was 0.919, the relative viability (NCI-H2085; first compound 0.003162 µM) was 1.09 and the relative viability (NCI-H2085; first compound 0.01 µM) was 1.17. It also gave a relative viability (NCI-H2085; first compound 0.03162 µM) of 0.84, a relative viability (NCI-H2085; first compound 0.1 µM) of 0.801 and a relative viability (NCI-H2087; first compound 0.001 µM) of 1.03. The relative viability (NCI-H2087; first compound 0.003162 µM) was 1.16, the relative viability (NCI-H2087; first compound 0.01 µM) was 1.27 and the relative viability (NCI-H2087; first compound 0.03162 µM) was 0.83. It also gave a relative viability (NCI-H2087; first compound 0.1 µM) of 0.761, a relative viability (NCI-H2170; first compound 0.001 µM) of 1.03 and a relative viability (NCI-H2170; first compound 0.003162 µM) of 1.14. For the same molecule, the relative viability (NCI-H2170; first compound 0.01 µM) was 1.24, the relative viability (NCI-H2170; first compound 0.03162 µM) was 0.995 and the relative viability (NCI-H2170; first compound 0.1 µM) was 1.01. The relative viability (NCI-H2228; first compound 0.003162 µM) was 0.99, the relative viability (NCI-H2228; first compound 0.01 µM) was 1.06 and the relative viability (NCI-H2228; first compound 0.03162 µM) was 0.549. The relative viability (NCI-H2228; first compound 0.1 µM) was 0.8, the relative viability (NCI-H23; first compound 0.001 µM) was 1.06 and the relative viability (NCI-H23; first compound 0.003162 µM) was 1.13. The relative viability (NCI-H23; first compound 0.01 µM) was 1.02, the relative viability (NCI-H23; first compound 0.03162 µM) was 0.79 and the relative viability (NCI-H23; first compound 0.1 µM) was 0.658. For the same molecule, the relative viability (NCI-H441; first compound 0.001 µM) was 0.878, the relative viability (NCI-H441; first compound 0.003162 µM) was 1.26 and the relative viability (NCI-H441; first compound 0.01 µM) was 1.32. The relative viability (NCI-H441; first compound 0.03162 µM) was 0.932, the relative viability (NCI-H441; first compound 0.1 µM) was 0.805 and the relative viability (NCI-H650; first compound 0.001 µM) was 0.982. It also gave a relative viability (NCI-H650; first compound 0.003162 µM) of 0.999, a relative viability (NCI-H650; first compound 0.03162 µM) of 0.986 and a relative viability (NCI-H650; first compound 0.1 µM) of 1. It also gave a relative viability (NCI-H727; first compound 0.003162 µM) of 1.16, a relative viability (NCI-H727; first compound 0.01 µM) of 1 and a relative viability (NCI-H727; first compound 0.03162 µM) of 0.797. The relative viability (NCI-H727; first compound 0.1 µM) was 0.79, the relative viability (NCI-H838; first compound 0.001 µM) was 1.03 and the relative viability (NCI-H838; first compound 0.003162 µM) was 1.16. The relative viability (NCI-H838; first compound 0.01 µM) was 1.27, the relative viability (NCI-H838; first compound 0.03162 µM) was 0.91 and the relative viability (NCI-H838; first compound 0.1 µM) was 0.949. For the same molecule, the relative viability (PC-3 [JPC-3]; first compound 0.001 µM) was 1.03, the relative viability (PC-3 [JPC-3]; first compound 0.003162 µM) was 1.16 and the relative viability (PC-3 [JPC-3]; first compound 0.01 µM) was 1.25. It also gave a relative viability (PC-3 [JPC-3]; first compound 0.03162 µM) of 0.967, a relative viability (PC-3 [JPC-3]; first compound 0.1 µM) of 0.863 and a relative viability (SW 1573; first compound 0.001 µM) of 0.949. For the same molecule, the relative viability (SW 1573; first compound 0.003162 µM) was 1.14, the relative viability (SW 1573; first compound 0.01 µM) was 1.14 and the relative viability (SW 1573; first compound 0.03162 µM) was 0.753. It also gave a relative viability (SW 1573; first compound 0.1 µM) of 0.808, a relative viability (SW 900; first compound 0.001 µM) of 0.664 and a relative viability (SW 900; first compound 0.003162 µM) of 0.814. The relative viability (SW 900; first compound 0.01 µM) was 1.09, the relative viability (SW 900; first compound 0.03162 µM) was 0.639 and the relative viability (SW 900; first compound 0.1 µM) was 0.902. It also gave a relative viability (UMC-11; first compound 0.001 µM) of 0.896, a relative viability (UMC-11; first compound 0.003162 µM) of 1.18 and a relative viability (UMC-11; first compound 0.01 µM) of 1.23. It also gave a relative viability (UMC-11; first compound 0.1 µM) of 1.17.
